Test results published in patent publication US5260189A, “Synthetic HIV-like peptides their compositions and uses” (Immunodiagnostics, Inc., priority 1992, dated 1993).
“Also recorded” adds a separate entry of the source.

Experiments:
antibodies to HIV-1 [1] = experiment: EIA of peptide-protein conjugates coated on polystyrene microtiter plates, human sera; type: binding; settings: for immunoreactivity with HIV-1 antibodies (FIG. 1): C-terminal BSA-SMCC conjugates, 10 micrograms peptide/ml coating, 1:101 dilution of pooled HIV+ / HIV- sera
Method: (§1) The free peptides or peptide-protein conjugates of FIGS. 1-13 were initially screened for immunoreactivity by coating each well of polystyrene microtiter EIA plates (Costar, Cambridge, Mass., U.S.A.) with 0.2 ml amounts of concentrations of 5-50 micrograms/ml peptide in Tris buffer, 10 mM, pH 8.0, at 4° C. overnight. Peptides or peptide-protein conjugates showing immunoreactivity by EIA were then further diluted for coating to determine the minimal concentrations required that allowed maximal immunoreactivity with antibodies to HIV, and minimal nonspecific reactivity with normal sera. The EIA tests were performed as follows: The coating solution was removed from each well and the wells were blocked at 37° C. for 30 minutes with a solution of 50 mM phosphate, 100 mM NaCl, pH 7.4, 1% BSA, 0.5% gelatin. The wells were then aspirated dry with a microtiter plate washer and washed 3 times with a solution of 50 mM phosphate, 100 mM NaCl, 0.05% Tween 20, pH 7.4 (PBST). A 1:101 dilution (in PBST with 1% BSA, 1% NRS) of the primate serum to be tested was then added as 0.2 ml to each washed well and the plates were incubated at 37° C. for 30 minutes. The plates were then washed×3 with PBST, and 0.2 ml amounts of a 1:2000 dilution of goat anti-human (GAH) peroxidase enzyme conjugate (Organon Teknika, Cappel, Melvern, Pa., U.S.A.) that recognized human IgG, IgA, and IgM were added to each well, and the plates were incubated for 30 minutes at 37° C. The plates were then washed×3 with PBST and incubated with 0.2 ml/well substrate consisting of 0.1M citric acid pH 5.2, 0.1 mg/ml o-phenylene diamine, 0.01% H2 O2, at room temperature in the dark for 10 minutes. Reactions were stopped with 50 microliters of 4N H2 SO4, and the color development was quantitated in a Multiscan plate reader at A492. In each series of experiments positive and negative controls were included, and all tests were done in duplicate or quadruplicate. Most peptides and peptide conjugates were initially screened against a 1:101 dilution of pools of HIV positive or HIV negative sera, and the same serum pool was used to allow quantitative comparison of immunoreactivity of different free peptides or peptide-protein conjugates.
(§2) The peptides in FIGS. 1 and 5 were synthesized as described in Example 1 and conjugated to KLH or BSA as described in Example 2. These peptide-protein conjugates were coated to polystyrene microtiter plates all at a concentration 10 micrograms peptide/ml and evaluated for immunoreactivity as described in Example 3, using a 1:101 dilution of a pool of sera (HIV+/SIV+, respectively) containing antibodies to HIV-1 (FIG. 1) or to HIV-2 (FIG. 5), as well as pooled serum (HIV-/SIV-, respectively) containing no antibodies to HIV-1 or HIV-2. […] Since sera from patients infected with HIV-2 are relatively unavailable in the United States, the immunoreactivity of HIV-2 synthetic peptides was assessed using serum from macaques infected with SIV, obtained from the University of Washington Primate Center, Seattle, Wash., U.S.A. The AA sequence of SIV is nearly identical to HIV-2 in the region of the peptides synthesized (see Myers et al., Human Retroviruses and AIDS, 1988. A compilation of nucleic acid and amino acid sequences. Los Alamos National Laboratory, Los Alamos, N. Mex., 87545, USA).

antibodies to SIV/HIV-2 = experiment: EIA of peptide-protein conjugates coated on polystyrene microtiter plates, macaque sera; type: binding, rhesus macaque (Macaca mulatta); settings: for discrimination of positive from negative macaque sera (FIG. 7): peptide-BSA conjugates; for immunoreactivity with SIV/HIV-2 antibodies (FIG. 5): C-terminal BSA-SMCC conjugates, 10 micrograms peptide/ml coating, 1:101 dilution of pooled SIV+ / SIV- macaque sera
Text: For all of the immunoassays employing human serum, the serum samples were obtained from the King County Health Department, Seattle, Wash., U.S.A., and each serum had been characterized as positive or negative with respect to antibodies to HIV-1, as determined by testing with the commercially licensed Genetic Systems and or DuPont EIA tests. Serum from rhesus macaque monkeys (Macaca mulatta) was obtained from the University of Washington, Seattle, Wash., U.S.A., and had been characterized by a SIV whole virus lysate EIA as either containing or not containing antibodies to SIV which is nearly identical in sequence to HIV-2 in the region of the peptide epitopes studied.
as §1, §2

antibodies to HIV-1 [2] = experiment: EIA of p24 synthetic peptide-BSA conjugates with serum pools and individual sera; type: binding, human
Method: as §1
FIG. 8 illustrates the immunoreactivity and AA sequences of synthetic peptides of the p24 protein of HIV-1, when conjugated to BSA via their C-termini using SMCC, and reacted with a pool of approximately 50 sera from persons containing antibody to HIV-1, or with a pool of approximately 30 sera from individuals devoid of antibody to HIV-1. […] No negative sera (0/85, 0%) reacted, and 17 positive sera (17/98, 17%) were immunoreactive. It has been reported that individuals lose antibodies to p24 during the course of progression from asymptomatic infection to clinical disease and AIDS (Franchini et al., Blood 69:(2):437-441, 1987, and Weber et al., Lancet i:119-122, 1987), which may explain the lower frequency of antibodies to this peptide in the sera tested.

Antibodies to HIV-2 = experiment: Detection of seroconversion in macaques experimentally infected with SIV, EIA; type: binding, macaque
Method: as §1
The immunoreactivity of the HIV-2 peptide BSA conjugates 2S24, (2S24 plus 5S86), and 5S92 was evaluated for detection of seroconversion in macaques using serial sera collected over a 16 week period from 7 macaques experimentally infected with SIV at week 0.

[3] = BSA-SMCC conjugate, 85 individual sera without antibodies to HIV-1
[4] = BSA-SMCC conjugate, 98 individual sera containing antibodies to HIV-1

Sequence: QQLLGIWGCSGKLICGC [3S36]
- immunoreactivity with HIV-1 antibodies (FIG. 1) (antibodies to HIV-1 [1]): Significant immunoreactivity

Sequence: YLKDQQLLGIWGCSGC [2S03]
- immunoreactivity with HIV-1 antibodies (FIG. 1) (antibodies to HIV-1 [1]): significantly less immunoreactive

Sequence: SWGCAFRQVCHTSVPGC [5S86, HIV-2/SIV natural peptide]
- discrimination of positive from negative macaque sera (FIG. 7) (antibodies to SIV/HIV-2): most favorable performances

Sequence: KDQQLLGIWGCSGKLGC [2S04]
- immunoreactivity with HIV-1 antibodies (FIG. 1) (antibodies to HIV-1 [1]): Significant immunoreactivity

Sequence: KLICTTAVPWNASWSGC [2S15]
- immunoreactivity with HIV-1 antibodies (FIG. 1) (antibodies to HIV-1 [1]): Significant immunoreactivity; also recorded: higher reactivity

Sequence: GCSGKLICTTAVPWNGC [2S11]
- immunoreactivity with HIV-1 antibodies (FIG. 1) (antibodies to HIV-1 [1]): Significant immunoreactivity; also recorded: higher reactivity

Sequence: ERYLKDQQLLGIWGC [2S02]
- immunoreactivity with HIV-1 antibodies (FIG. 1) (antibodies to HIV-1 [1]): significantly less immunoreactive

Sequence: LGIWGCSGKLICTTAGC [2S07]
- immunoreactivity with HIV-1 antibodies (FIG. 1) (antibodies to HIV-1 [1]): Significant immunoreactivity

Sequence: SWGCAFRQVCHTTVPGC [2S27]
- immunoreactivity with SIV/HIV-2 antibodies (FIG. 5) (antibodies to SIV/HIV-2): Significant immunoreactivity; also recorded: best immunoreactivity; also recorded: maximally immunoreactive
- discrimination of positive from negative macaque sera (FIG. 7) (antibodies to SIV/HIV-2): most favorable performances

Sequence: LLGIWGCSGKLICTTGC [2S06]
- immunoreactivity with HIV-1 antibodies (FIG. 1) (antibodies to HIV-1 [1]): Significant immunoreactivity

Sequence: IWGCSGKMICTTAVPGC [5S76, unnatural variant of HIV-1 gp41 peptide 2S09]
- number of positive samples giving A492 less than 1.0 (antibodies to HIV-1 [1]; BSA-SMCC conjugate, 98 positive human sera (FIGS. 11A, 11B)): Five

Sequence: ALGPAATLEEMMTACGC [5S94, HIV-1 p24 peptide with GC tail]
- negative sera reacting (antibodies to HIV-1 [2]; [3]): 0/85
- negative sera reacting, percent (antibodies to HIV-1 [2]; [3]): 0%
- positive sera immunoreactive (antibodies to HIV-1 [2]; [4]): 17/98
- positive sera immunoreactive, percent (antibodies to HIV-1 [2]; [4]): 17%
- immunoreactivity with serum pools (FIG. 8) (antibodies to HIV-1 [2]; BSA-SMCC conjugates, pool of approximately 50 HIV+ sera and approximately 30 HIV- sera): immunoreactive peptide; also recorded: significant immunoreactivity

Sequence: CSGKLICTTAVPWNAGC [3S51]
- immunoreactivity with HIV-1 antibodies (FIG. 1) (antibodies to HIV-1 [1]): Significant immunoreactivity; also recorded: higher reactivity

Sequence: DQARLNSWGCAFRQVC [2S24]
- immunoreactivity with SIV/HIV-2 antibodies (FIG. 5) (antibodies to SIV/HIV-2): Significant immunoreactivity; also recorded: best immunoreactivity; also recorded: maximally immunoreactive
- discrimination of positive from negative macaque sera (FIG. 7) (antibodies to SIV/HIV-2): most favorable performances
- Reactivity by Peptide-BSA Conjugate (reactive macaques/7) (Antibodies to HIV-2; Week 0 (SIV infection at week 0)): 0/7
- Reactivity by Peptide-BSA Conjugate (reactive macaques/7) (Antibodies to HIV-2; Week 1): 0/7
- Reactivity by Peptide-BSA Conjugate (reactive macaques/7) (Antibodies to HIV-2; Week 2): 1/7
- Reactivity by Peptide-BSA Conjugate (reactive macaques/7) (Antibodies to HIV-2; Week 3): 2/7
- Reactivity by Peptide-BSA Conjugate (reactive macaques/7) (Antibodies to HIV-2; Week 4): 4/7
- Reactivity by Peptide-BSA Conjugate (reactive macaques/7) (Antibodies to HIV-2; Week 6): 6/7
- Reactivity by Peptide-BSA Conjugate (reactive macaques/7) (Antibodies to HIV-2; Week 8): 7/7
- Reactivity by Peptide-BSA Conjugate (reactive macaques/7) (Antibodies to HIV-2; Week 12): 7/7
- Reactivity by Peptide-BSA Conjugate (reactive macaques/7) (Antibodies to HIV-2; Week 16): 7/7

Sequence: SGKLICTTAVPWNASGC [2S13]
- immunoreactivity with HIV-1 antibodies (FIG. 1) (antibodies to HIV-1 [1]): Significant immunoreactivity; also recorded: higher reactivity

Sequence: RILAVERYLKDQQLLGIWGCSGKLIC [4S25, reference compound]
- immunoreactivity with HIV-1 antibodies (FIG. 1) (antibodies to HIV-1 [1]): Significant immunoreactivity; also recorded: lower immunoreactivity; also recorded: lower or comparable immunoreactivity

Sequence: AVERYLKDQQLLGC [2S01]
- immunoreactivity with HIV-1 antibodies (FIG. 1) (antibodies to HIV-1 [1]): significantly less immunoreactive

Sequence: GKLICTTAVPWNASWGC [3S55]
- immunoreactivity with HIV-1 antibodies (FIG. 1) (antibodies to HIV-1 [1]): Significant immunoreactivity; also recorded: higher reactivity

Sequence: IKQLQARILAVERYLKDQQ [4S24, reference compound]
- immunoreactivity with HIV-1 antibodies (FIG. 1) (antibodies to HIV-1 [1]): lower immunoreactivity

Sequence: IWGCSGKLICTTAVPGC [2S09]
- immunoreactivity with individual positive sera (FIGS. 10B, 10C) (antibodies to HIV-1 [1]; BSA-SMCC conjugate, 98 HIV-1 antibody positive human sera): some positive samples had very low immunoreactivity
- immunoreactivity with HIV-1 antibodies (FIG. 1) (antibodies to HIV-1 [1]): Significant immunoreactivity; also recorded: slightly superior immunoreactivity; also recorded: maximally immunoreactive; also recorded: higher reactivity
